The values that follow come from PubChem BioAssay AID1259407 (Chemical Carcinogenesis Research Information System (CCRIS), 2018).

Each structure is given as a SMILES string. Active and inactive are the calls of the source. No rule for the calls is given here.

This series concerns CCRIS mutagenicity, Ames/micronucleus/aberration tests. In words: CCRIS mutagenicity studies.
[1] abbreviates: Test System: AMES SALMONELLA TYPHIMURIUM, Strain/Indicator: TA98, Metabolic Activation: RAT, LIVER, S-9, AROCLOR 1254, Method: STANDARD PLATE.
The mark [2] stands for this setting: Test System: AMES SALMONELLA TYPHIMURIUM, Strain/Indicator: TA100, Metabolic Activation: RAT, LIVER, S-9, AROCLOR 1254, Method: STANDARD PLATE.
[3] abbreviates: Test System: AMES SALMONELLA TYPHIMURIUM, Strain/Indicator: TA1535, Metabolic Activation: NONE, Method: STANDARD PLATE.
The mark [4] stands for this setting: Test System: AMES SALMONELLA TYPHIMURIUM, Strain/Indicator: TA1535, Metabolic Activation: RAT, LIVER, S-9, AROCLOR 1254, Method: STANDARD PLATE.
[5] abbreviates: Test System: AMES SALMONELLA TYPHIMURIUM, Strain/Indicator: TA1538, Metabolic Activation: NONE, Method: STANDARD PLATE.
Where [6] appears, read: Test System: AMES SALMONELLA TYPHIMURIUM, Strain/Indicator: TA1538, Metabolic Activation: RAT, LIVER, S-9, AROCLOR 1254, Method: STANDARD PLATE.
Setting [7] is: Test System: AMES SALMONELLA TYPHIMURIUM, Strain/Indicator: TA100, Metabolic Activation: NONE, Method: STANDARD PLATE.

As to `CN(C)C(=S)SSC(=S)N(C)C`, the mutagenic call runs as follows: (End Point: IN VIVO MICRONUCLEUS, Test System: BONE MARROW POLYCHROMATIC ERYTHROCYTES, Species: MOUSE, Strain/Sex: SWISS/MALE, FEMALE, Route: IP 2X IN AQUEOUS SUSPENSION WITHIN 24 HR) “inactive; negative”; under setting [1], “active; positive”; (Test System: AMES SALMONELLA TYPHIMURIUM, Strain/Indicator: TA98, Metabolic Activation: S-9, Method: STANDARD PLATE) “inactive; negative”; under setting [2], “active; positive”; (Test System: AMES SALMONELLA TYPHIMURIUM, Strain/Indicator: TA100, Metabolic Activation: S-9, Method: STANDARD PLATE) “active; positive”; (Test System: AMES SALMONELLA TYPHIMURIUM, Strain/Indicator: TA102, Metabolic Activation: NONE, Method: STANDARD PLATE) “inactive; negative”. Further, the mutagenic call (Test System: AMES SALMONELLA TYPHIMURIUM, Strain/Indicator: TA102, Metabolic Activation: RAT, LIVER, S-9, AROCLOR 1254, Method: STANDARD PLATE) is “inactive; negative”; the mutagenic call (Test System: AMES SALMONELLA TYPHIMURIUM, Strain/Indicator: TA104, Metabolic Activation: NONE, Method: STANDARD PLATE) is “inactive; negative”; the mutagenic call (Test System: AMES SALMONELLA TYPHIMURIUM, Strain/Indicator: TA104, Metabolic Activation: RAT, LIVER, S-9, AROCLOR 1254, Method: STANDARD PLATE) was “inactive; negative”; the mutagenic call under setting [3] is “active; positive”; the mutagenic call under setting [4] was “active; positive”; the mutagenic call under setting [5] was “active; positive”. Further, the mutagenic call by setting is: under setting [6], “active; positive”; (Test System: CHINESE HAMSTER V-79, Strain/Indicator: V-79 (HGPRT)/6-THIOGUANINE, Metabolic Activation: NONE, Method: RESPREADING) “active; positive”.
In the case of `Cn1c2ccc3ccccc3c2c2c3ccccc3ccc21`, the mutagenic call under setting [2] was “active; positive”; the mutagenic call (Test System: AMES SALMONELLA TYPHIMURIUM, Strain/Indicator: TM677, Metabolic Activation: RAT, LIVER, S-9, 3-METHYLCHOLANTHRENE (1%), Method: PREINCUBATION) was “inactive; negative”; the mutagenic call (Test System: AMES SALMONELLA TYPHIMURIUM, Strain/Indicator: TM677, Metabolic Activation: RAT, LIVER, S-9, 3-METHYLCHOLANTHRENE (10%), Method: PREINCUBATION) was “inactive; negative”; the mutagenic call (Test System: AMES SALMONELLA TYPHIMURIUM, Strain/Indicator: TM677, Metabolic Activation: RAT, LIVER, S-9, AROCLOR 1254 (10%), Method: PREINCUBATION) is “inactive; negative”.
For `COc1nsc2c(OCC3CO3)cccc12` (stereo unspecified), the mutagenic call under setting [7] was “active; positive”.
For the molecule `O.O.O.O=C([O-])[C@H]([O-])[C@@H]([O-])C(=O)[O-].O=C([O-])[C@H]([O-])[C@@H]([O-])C(=O)[O-].[K+].[K+].[Sb+3].[Sb+3]`, the mutagenic call (Test System: AMES SALMONELLA TYPHIMURIUM, Strain/Indicator: TA98, Metabolic Activation: HAMSTER, LIVER, S-9, AROCLOR 1254, Method: STANDARD PLATE) was “inactive; negative”; the mutagenic call (Test System: AMES SALMONELLA TYPHIMURIUM, Strain/Indicator: TA98, Metabolic Activation: NONE, Method: STANDARD PLATE) was “inactive; negative”; the mutagenic call under setting [1] was “inactive; negative”; the mutagenic call (Test System: AMES SALMONELLA TYPHIMURIUM, Strain/Indicator: TA100, Metabolic Activation: HAMSTER, LIVER, S-9, AROCLOR 1254, Method: STANDARD PLATE) was “inactive; negative”; the mutagenic call under setting [7] is “inactive; negative”; the mutagenic call under setting [2] was “inactive; negative”. For the same molecule, the mutagenic call is “inactive; negative” (Test System: AMES SALMONELLA TYPHIMURIUM, Strain/Indicator: TA1535, Metabolic Activation: HAMSTER, LIVER, S-9, AROCLOR 1254, Method: STANDARD PLATE); “inactive; negative” under setting [3]; “inactive; negative” under setting [4]; “inactive; negative” (Test System: AMES SALMONELLA TYPHIMURIUM, Strain/Indicator: TA1537, Metabolic Activation: HAMSTER, LIVER, S-9, AROCLOR 1254, Method: STANDARD PLATE); “inactive; negative” (Test System: AMES SALMONELLA TYPHIMURIUM, Strain/Indicator: TA1537, Metabolic Activation: NONE, Method: STANDARD PLATE); “inactive; negative” (Test System: AMES SALMONELLA TYPHIMURIUM, Strain/Indicator: TA1537, Metabolic Activation: RAT, LIVER, S-9, AROCLOR 1254, Method: STANDARD PLATE). For the same molecule, the mutagenic call runs as follows: (Test System: AMES SALMONELLA TYPHIMURIUM, Strain/Indicator: TA1538, Metabolic Activation: HAMSTER, LIVER, S-9, AROCLOR 1254, Method: STANDARD PLATE) “inactive; negative”; under setting [5], “inactive; negative”; under setting [6], “inactive; negative”; (Test System: MOUSE LYMPHOMA, Strain/Indicator: L5178Y (TK+/TK-), Metabolic Activation: NONE, Method: SUSPENSION/PLATE) “active; positive. reevaluation of results: positive”; (Test System: MOUSE LYMPHOMA, Strain/Indicator: L5178Y (TK+/TK-), Metabolic Activation: RAT, LIVER, S-9, AROCLOR 1254, Method: SUSPENSION/PLATE) “active; positive. reevaluation of results: positive”.
